Values quoted from earlier work in patent publication US20110290119A1, “ANTIMICROBIAL ELECTRET WEB” (3M Innovative Properties Company, priority 2009, published 2011).

Test system: Ps. aeruginosa (gram negative)
Conditions: known

Question: Which microbial load reduction does the source give for O=C1OC2(c3cc(I)c(O)c(I)c3Oc3c2cc(I)c(O)c3I)c2c(Cl)c(Cl)c(Cl)c(Cl)c21 [rose bengal, 4,5,6,7-Tetrachloro-3′,6′-dihydroxy-2′,4′,5′,7′-tetraiodo-3H-spiro[isobenzofuran-1,9′-xanthen]-3-one] here?
Answer: not particularly effective
